Tests used:
[1] = tested on: superoxide dismutase (SOD); assay: Serum SOD activity after feeding chicks; assay type: in vivo; conditions: 5 micrograms of selenium/day
Experimental: (§1) Chicks, which were used as a model, were fed with the esterified selenium polysaccharide of the present invention continuously at a dose of 5 micrograms of selenium/day after birth. A polysaccharide without the esterified selenium was used as a control. On days 7, 14, 21, and 28 after feeding, the assay of the activity of glutathione peroxidase (GSH-Px) and superoxide dismutase (SOD) was performed (using commercially available kits EnzyChrom™ Glutahione Peroxidase Assay Kit and MIBio Mouse superoxide dismutase (SOD) kit for completion of the assay).

[2] = tested on: IFN-γ; assay: IFN-γ expression in B-6 splenocytes, flow cytometry; assay type: cell-based; conditions: 2 to 5 micrograms selenium/mL, 48 hours, compared with 1,3-glucose hexasaccharide
Experimental: (§2) B-6 splenocytes were used as the experimental model. Carrageenan, chitohexaose, 1,3-glucose hexasaccharide, PMA+innomycin were used as controls and incubated in the culture medium containing the esterified selenium polysaccharide of the present invention (2 to 5 micrograms selenium/mL) for 48 hours to detect the expression of IL-4 and IFN-γ thereof.
(§3) In the Example, the culture medium for culturing B-6 spleen cells is the culture medium for culturing B-6 spleen cells conventionally in the art, and contains essential and non-essential amino acids, vitamins, glucose, hormones, growth factors, trace minerals and low-concentration fetal bovine serum (2%) and 5 mi penicillin/streptomycin solution. The buffer system of the medium is phosphate buffered saline solution PBS, and the pH value is 7.4 after equilibrating in a cell incubator containing 5% CO2.
(§4) After the cells were harvested, they were stained with BD Bioscience's Cytofix/Cytoperm kit and detected by flow cytometry.

[3] = tested on: glutathione peroxidase (GSH-Px); assay: Serum GSH-Px activity after feeding chicks; assay type: in vivo; conditions: 5 micrograms of selenium/day
Experimental: as §1

[4] = tested on: IL-4; assay: IL-4 expression in B-6 splenocytes, flow cytometry; assay type: cell-based; conditions: 2 to 5 micrograms selenium/mL, 48 hours, compared with 1,3-glucose hexasaccharide
Experimental: as §2, §3, §4

[5] = Blood detection after feeding mice; assay type: in vivo; design: red blood cell: unit not given here
From the text: Mice, which were used as a model, were fed with the esterified selenium polysaccharide prepared by the present invention continuously at a selenium dose of 2 to 5 micrograms of selenium/day for 2 weeks. A polysaccharide without the esterified selenium was used as a control. […] The above-mentioned detection data became stable starting from week 5.

[6] = fed 2 to 5 micrograms of selenium/day, week 3 to week 6

esterified selenium polysaccharide
Serum SOD ([1]; Day 1): 180 U/mg | Serum SOD ([1]; Day 7): 191 U/mg | Serum SOD ([1]; Day 14): 195 U/mg | Serum SOD ([1]; Day 21): 190 U/mg | Serum SOD ([1]; Day 28): 187 U/mg | increase of SOD at maximum ([1]; maximum on days 7-14): 12% | increase of maximum expression of IFN-γ [2]: 36% | Serum GSH-Px ([3]; Day 1): 1869 U/mg | Serum GSH-Px ([3]; Day 7): 1879 U/mg | Serum GSH-Px ([3]; Day 14): 1975 U/mg | Serum GSH-Px ([3]; Day 21): 2150 U/mg | Serum GSH-Px ([3]; Day 28): 2090 U/mg | increase of chick GHS-Px activity at maximum ([3]; maximum on days 14-21): 15% | increase of maximum expression of IL-4 [4]: 60% | Selenium content in serum ([5]; Week 1, 2 μg/day selenium): 0.4 µg/L | red blood cell ([5]; Week 1, 2 μg/day selenium): 9.58 ×10^6 | white blood cell ([5]; Week 1, 2 μg/day selenium): 7260 mL⁻¹ | Selenium content in serum ([5]; Week 1, 5 μg/day selenium): 0.7 µg/L | red blood cell ([5]; Week 1, 5 μg/day selenium): 9.66 ×10^6 | white blood cell ([5]; Week 1, 5 μg/day selenium): 7290 mL⁻¹ | Selenium content in serum ([5]; Week 3, 2 μg/day selenium): 2.9 µg/L | red blood cell ([5]; Week 3, 2 μg/day selenium): 9.75 ×10^6 | white blood cell ([5]; Week 3, 2 μg/day selenium): 7360 mL⁻¹ | Selenium content in serum ([5]; Week 3, 5 μg/day selenium): 4.5 µg/L | red blood cell ([5]; Week 3, 5 μg/day selenium): 9.97 ×10^6 | white blood cell ([5]; Week 3, 5 μg/day selenium): 7570 mL⁻¹ | Selenium content in serum ([5]; Week 4, 2 μg/day selenium): 6.1 µg/L | red blood cell ([5]; Week 4, 2 μg/day selenium): 10.5 ×10^6 | white blood cell ([5]; Week 4, 2 μg/day selenium): 7590 mL⁻¹ | Selenium content in serum ([5]; Week 4, 5 μg/day selenium): 6.8 µg/L | red blood cell ([5]; Week 4, 5 μg/day selenium): 10.5 ×10^6 | white blood cell ([5]; Week 4, 5 μg/day selenium): 7910 mL⁻¹ | Selenium content in serum ([5]; Week 5, 2 μg/day selenium): 6.9 µg/L | red blood cell ([5]; Week 5, 2 μg/day selenium): 11.1 ×10^6 | white blood cell ([5]; Week 5, 2 μg/day selenium): 7960 mL⁻¹ | Selenium content in serum ([5]; Week 5, 5 μg/day selenium): 7.3 µg/L | red blood cell ([5]; Week 5, 5 μg/day selenium): 11.4 ×10^6 | white blood cell ([5]; Week 5, 5 μg/day selenium): 7990 mL⁻¹ | Selenium content in serum ([5]; Week 6, 2 μg/day selenium): 7.0 µg/L | red blood cell ([5]; Week 6, 2 μg/day selenium): 11.2 ×10^6 | white blood cell ([5]; Week 6, 2 μg/day selenium): 7960 mL⁻¹ | Selenium content in serum ([5]; Week 6, 5 μg/day selenium): 7.3 µg/L | red blood cell ([5]; Week 6, 5 μg/day selenium): 11.5 ×10^6 | white blood cell ([5]; Week 6, 5 μg/day selenium): 7990 mL⁻¹ | increase of red blood cells [5, 6]: 20% | increase of selenium content in serum [5, 6]: more than 30% | increase of white blood cells [5, 6]: 10%

Source: patent US11345761B2, “Esterified selenium polysaccharide and preparation method and use therefor” (AI-MAY ZHONG KE SELENIUM TECHNOLOGY (TIANJIN) CO., LTD, priority 2018, dated 2022)
